Experimental data: US20100311606A1, “PHARMACOGENOMIC CELL LINE PANEL AND USE THEREOF” (priority 2007, published 2010)

Legend:
[1] = tested on: lymphoblastoid cell lines; assay: Intracellular active metabolites by HPLC after drug treatment; settings: after AraC treatment
Method: To measure the intracellular metabolite levels in drug-treated lymphoblastoid cell lines, an HPLC assay was developed to measure AraCDP, AraCTP as well as dFdCDP and dFdCTP. […] Five×10^6 cells were centrifuged and washed with ice-cold phosphate buffered saline (PBS), followed by resuspension in 135 μL, of ice-cold PBS with 15 μL, of 100 μM AraCTP or dFdCTP as internal standards. Subsequently 50 μL, of 40% ice cold TCA was added, and the mixture was vortexed for 1 minute and chilled on ice for 20 minutes, followed by centrifugation. The supernatant was neutralized by adding 400 μL, of freshly prepared trioctylamine:trichlorotrifluoroethane (1:4). After centrifugation at 4° C. for 1 minute, the aqueous phase (nucleotide extract) was removed and stored at −20° C. for HPLC analysis.
Nucleotide analogue metabolites were separated from native nucleotides on a ZirChrom SAX HPLC column in HPLC assay. […] Mobile phase A was 10 mM K2HPO4 and 40 mM NaCl, pH 6.8. Mobile phase B was 100 mM K2HPO4 and 400 mM K2HPO4, pH 6.8. Detection was performed by monitoring the absorbance with a photo-diode array between 240-290 nm to obtain a typical chromatogram. The amount of intracellular metabolites in 5×10^6 cells was quantified with a standard curve prepared by spiking the 5×10^6 untreated control cells with pure compound, immediately followed by nucleotide extraction.

MDA-MB-231 cells = assay: Caspase-3/7 activity assay in siRNA-transfected cells; assay type: cell-based, human; settings: increasing drug concentrations, 72 hours, compared with negative siRNA
Method: (§1) Error bars represent SEM values for 3 independent experiments.
(§2) Caspase-3/7 activity assay: The caspase-3 activity of siRNA-transfected cells was detected according to the manufacture's protocol using CASPASE-GLO® 3/7 Assay kit (Promega BioSciences, San Luis Obispo, Calif.). Once a proluminescent caspase-3/7 substrate containing the tetrapeptide sequence DEVD is cleaved by caspase-3/7, it will release a substrate for luciferase (amino-luciferin). […] CASPASE-GLO® 3/7 Reagent (100 μl; an equal volume to the cell suspension) was added and incubated for 1 hour at room temperature, followed by detection of luminescence with a luminometer. Wells containing culture medium alone were used as controls.
(§3) One possibility would involve the blockade of apoptosis signaling pathways as a result of FKBP5 knock-down. FKBP5 has been reported to be involved in apoptosis through a calcineurin-dependent pathway (Giraudier et al. Blood (2002) 100:2932-2940). To test that hypothesis, caspase-3/7 activity assays were performed to determine whether alterations in FKBP5 expression might influence apoptotic signaling. […] Specific mechanisms by which FKBP5 might influence apoptosis will require future clarification.

SU86 cells = assay: as above; assay type: cell-based, human; settings: increasing drug concentrations, 72 hours, compared with negative siRNA
Method: as §1, §2, §3

[2] = tested on: human lymphoblastoid cell lines; assay: Gemcitabine and AraC cytotoxicity assay (MTS/PMS), Human Variation Panel; assay type: cell-based; settings: 197 cell lines; mean±SD; 72 hours; read-out: Average unadjusted LC50
Method: (§4) Specifically, once cells grew at an exponential phase, 90 μl of cell suspension were placed into a 96 well flat plate (Corning, Corning, N.Y.) at a density of 5×10^4 cells/well. […] Experiments were performed in triplicate for each concentration. Medium alone was used as a blank, and cells treated with DMSO were used as controls for every plate. At end of the incubation, 20 μl combined MTS/PMS solution were added into each well and incubated at 37° C. for an additional 1-2 hours. The amount of soluble formazan was measured with a SAFIRE™ microplate reader (Tecan A G, Switzerland). An absorbance for the control cells ranging from 0.8 to 1.3 was considered to meet the standard of cytotoxicity assays for the analysis. The final cell viability for each well was calculated using the following formula: relative survival cell number=absorbance (drug-treated cells−blank)/absorbance (control cells−[…]). […] GI50 values at each concentration for each cell lines were then calculated based on the dose response curve. […] In addition, to functionally characterize the effect of the candidate genes on the sensitivity to both drugs, drug cytotoxicity with human tumor cell lines also was analyzed using an MTS assay. […]

[3] = tested on: MDA-MB-231 breast cancer cells; assay: Cytotoxicity (MTS) after siRNA knockdown of NT5C3 or FKBP5; assay type: cell-based, human; settings: for Change of drug sensitivity after FKBP5 siRNA: FKBP5 specific siRNA vs negative siRNA
Method: (§5) Specifically, once cells grew at an exponential phase, 90 μl of cell suspension were placed into a 96 well flat plate (Corning, Corning, N.Y.) at a density of 5×10^4 cells/well. […] Experiments were performed in triplicate for each concentration. Medium alone was used as a blank, and cells treated with DMSO were used as controls for every plate. At end of the incubation, 20 μl combined MTS/PMS solution were added into each well and incubated at 37° C. for an additional 1-2 hours. The amount of soluble formazan was measured with a SAFIRE™ microplate reader (Tecan A G, Switzerland). An absorbance for the control cells ranging from 0.8 to 1.3 was considered to meet the standard of cytotoxicity assays for the analysis. The final cell viability for each well was calculated using the following formula: relative survival cell number=absorbance (drug-treated cells−blank)/absorbance (control cells−[…]). During the entire process from cell culture to cytotoxicity analysis, all cell lines were grown exponentially without antibiotics and were handled by one person under the same condition to minimize the variation introduced by handling. The final dose-response curve for each cell line was plotted based on either 4 parameter logistic with top=100%, or 4 parameter logistic with bottom=0% using an R package. GI50 values at each concentration for each cell lines were then calculated based on the dose response curve. Twelve randomly selected lymphoblastoid cell lines were used to repeat the cytotoxicity studies three months later. In addition, to functionally characterize the effect of the candidate genes on the sensitivity to both drugs, drug cytotoxicity with human tumor cell lines also was analyzed using an MTS assay. The experimental procedures were similar to those for the lymphoblastoid cell lines, except that the cells were incubated overnight in 96 well plates before addition of the two drugs.
(§6) Transient transfection and RNA interference: The human breast cancer cell line, MDA-MB-231, and the human pancreatic cancer cell line, SU86, were used for siRNA studies. The LIPOFECTAMINE™ RNAiMAX reagent (Invitrogen, Carlsbad, Calif.) was used for transient transfection of siRNA according to the manufacturer's instructions. Briefly, cells were growing adhesively until they reached 30-50% confluence in a 6-well plate, and then transfected. siRNAs including NT5C3-siRNA, FKBP5-siRNA and Allstars negative control siRNA (Qiagen) at a final concentration of 50 nM, as well as 5 μL, of LIPOFECTAMINE™ RNAiMAX reagent, were preincubated with 250 μL, reduced serum medium (Invitrogen) for 5 minutes at room temperature before being mixed together. After incubation of the siRNA and LIPOFECTAMINE™ reagent mixtures for 20 minutes at room temperature, this mixture was added to cells in 2 ml culture medium supplied with 10% FBS. Cells were harvested for further assays 48 hours post-transfection.
(§7) Transient transfections were first performed with NT5C3 and FKBP5 specific siRNAs. Western blots verified that both genes were knocked down in both tumor cell lines (FIG. 21A and FIG. 22A). […] That relationship also was confirmed by knockdown experiments performed with FKBP5 specific siRNA.

[4] = tested on: SU86 pancreatic cancer cells; assay: as above; assay type: cell-based, human; settings: for Change of drug sensitivity after FKBP5 siRNA: FKBP5 specific siRNA vs negative siRNA
Method: as §5, §6, §7

[5] = tested on: patients with pancreatic cancer; settings: patients treated with gemcitabine; cited from earlier work
thymidine kinase 2 (TK2) = target: T1, thymidine kinase 2 (TK2) (Homo sapiens, UniProt O00142); settings: as well as deoxycytidine; cited from earlier work
T1 sequence (O00142 34-265): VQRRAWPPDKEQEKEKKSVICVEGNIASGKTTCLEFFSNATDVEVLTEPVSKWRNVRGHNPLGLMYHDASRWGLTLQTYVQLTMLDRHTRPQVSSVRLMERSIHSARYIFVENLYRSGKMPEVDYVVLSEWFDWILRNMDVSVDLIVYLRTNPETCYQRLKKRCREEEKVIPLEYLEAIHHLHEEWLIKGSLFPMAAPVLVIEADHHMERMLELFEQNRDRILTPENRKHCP

[6] = tested on: lymphoblastoid cell lines; assay: Preliminary gemcitabine cytotoxicity, MTS assay, initial 71 cell lines; assay type: cell-based; settings: Homo sapiens, read-out: IC50 values (the drug concentration that inhibited cell growth 50%), variation across initial 71 lymphoblastoid cell lines, 48 hours
Method: Gemcitabine cytotoxicity: Gemcitabine cytotoxicity after drug exposure is a major phenotype that is determined in the course of phenotype-genotype association studies for the lymphoblastoid cell lines. Increasing concentrations of gemcitabine are used to perform the cytotoxicity studies in a 96-well plate format. Approximately 5×10^5 lymphoblastoid cells are incubated overnight in each well before addition of the drug. The cells are then incubated for 48 hours with gemcitabine at 8 different concentrations, ranging from 10^−4 μM to 100 μM. Cytotoxicity is determined using the MTS assay. All studies are performed in triplicate, and both IC50 and LC50 values are calculated. To avoid confounding factors, cytotoxicity studies are performed with equal numbers of cell lines from each ethnic group in every experiment.
IC50 data have been obtained for 71 of 203 cell lines (the 71 cell lines for which Perlegen genome-wide SNP data is available). Significant variation in IC50 values was observed just for the initial 71 cell lines studied (FIG. 14). Each square in FIG. 14 represents an individual sample, and the colors represent different ethnic groups.

in vitro = assay type: cell-based; settings: human
Method: as §4

[7] = average of 7 resistant cell samples
[8] = average of 7 sensitive cell samples
[9] = NT5C3 specific siRNA vs negative siRNA

Row | Structure (SMILES) | AraCDP, Resistant, Average ± SEM [1, 7] | AraCTP, Resistant, Average ± SEM [1, 7] | AraCDP, Sensitive, Average ± SEM [1, 8] | AraCTP, Sensitive, Average ± SEM [1, 8] | caspase-3/7 activity in FKBP5 siRNA-treated cells (MDA-MB-231 cells) | caspase-3/7 activity in FKBP5 siRNA-treated cells (SU86 cells) | CC50 [2] | Change of drug sensitivity after FKBP5 siRNA [3] | Change of drug sensitivity after FKBP5 siRNA [4] | patients with life expectancies of over one year [5] | phosphorylation by TK2 relative to deoxycytidine (thymidine kinase 2 (TK2)) | IC50 [6] | CC50 at 72 h (in vitro) | Change of drug sensitivity (dose response curve) after NT5C3 siRNA [3, 9] | Change of drug sensitivity (dose response curve) after NT5C3 siRNA [4, 9]
1 | Nc1ccn([C@@H]2O[C@H](CO)[C@@H](O)[C@@H]2O)c(=O)n1 [AraC, cytosine arabinoside] | 0.65 ± 0.13 | 2.62 ± 0.40 | 1.02 ± 0.18 | 4.43 ± 0.56 | significantly decreased | significantly decreased | 8400 ± 14300 nM | desensitized | desensitized | – | – | – | – | – | –
2 | Nc1ccn([C@@H]2O[C@H](CO)[C@@H](O)C2(F)F)c(=O)n1 [gemcitabine, 2′,2′-difluorodeoxycytidine] | – | – | – | – | significantly decreased | significantly decreased | – | desensitized | desensitized | approximately 20% | 5-10% | 4 to 80 nM | 25.3 ± 30.7 nM | increased sensitivity | increased sensitivity
